Measured values as given in article PMC7997369, “Assessment of the Multifunctional Behavior of Lupin Peptide P7 and Its Metabolite Using an Integrated Strategy” (Journal of Agricultural and Food Chemistry, 2020).
No end group written: not given here.

Assays:
[1] = molecular target: T1, HMGCoAR (catalytic domain) (Homo sapiens, UniProt P04035); assay: In vitro HMGCoAR inhibitory activity assay; type: biochemical; settings: 37 °C, NADPH absorbance at 340 nm, mean ± sd of three independent experiments in triplicate
T1 construct: finally the HMGCoAR (catalytic domain) (2 µL); purchased Sigma
T1 sequence (P04035 426-888 limits assumed): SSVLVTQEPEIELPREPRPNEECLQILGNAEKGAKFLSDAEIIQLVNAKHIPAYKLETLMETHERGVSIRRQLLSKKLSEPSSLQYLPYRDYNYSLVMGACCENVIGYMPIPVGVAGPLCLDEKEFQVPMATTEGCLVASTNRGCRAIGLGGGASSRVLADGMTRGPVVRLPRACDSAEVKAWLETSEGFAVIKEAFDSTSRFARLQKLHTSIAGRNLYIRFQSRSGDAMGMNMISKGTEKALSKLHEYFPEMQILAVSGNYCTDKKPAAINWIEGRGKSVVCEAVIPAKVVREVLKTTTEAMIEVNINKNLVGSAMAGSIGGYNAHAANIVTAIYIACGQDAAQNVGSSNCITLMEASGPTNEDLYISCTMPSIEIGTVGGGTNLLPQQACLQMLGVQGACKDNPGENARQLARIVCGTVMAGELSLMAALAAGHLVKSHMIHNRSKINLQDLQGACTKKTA
Experimental: The assay buffer, NADPH, substrate solution, and HMGCoAR were provided in the HMGCoAR assay kit (Sigma). The experiments were carried out testing LTFPG at 100 and 250 μM at 37 °C in agreement with the conditions previously reported.[8] For further details, see the Supporting Information.
The assay buffer, NADPH, substrate solution, and HMGCoAR were provided in the HMGCoAR Assay Kit (Sigma). The experiments were carried out following the manufacturer’s instructions at 37 °C. In particular, each reaction (200 µL) was prepared adding the reagents in the following order: 1 X assay buffer, LTFPG (100.0 and 250.0 µM) or vehicle (C), the NADPH (4 µL), the substrate solution (12 µL), and finally the HMGCoAR (catalytic domain) (2 µL). Subsequently, the samples were mixed and the absorbance at 340 nm read by a microplate reader Synergy H1 from Biotek at time 0 and 10 min. The HMGCoAR-dependent oxidation of NADPH and the inhibition properties of lupin peptides were measured by absorbance reduction, which is directly proportional to enzyme […]
In vitro ACE-inhibitory assay […]
The evaluation of the inhibition of ACE activity was based on the comparison between the concentrations of HA in the presence or absence of the inhibitor (Inhibitor Blank). The phenomenon of autolysis of HHL to give HA was evaluated by a reaction blank, i.e. a sample with the higher

[2] = molecular target: T2, angiotensin-converting enzyme (ACE) (Homo sapiens, UniProt P12821); assay: Cellular ACE inhibitory assay in undifferentiated intestinal Caco-2 cells; type: cell-based; set-up: endogenous in cells; host or cells: Caco-2 cells (INSERM, Paris); settings: Caco-2 cells treated 24 h at 37 °C with P7 0.1–250 μM; ACE activity in cell lysates, fluorescent Abz substrate; mean ± sd of three independent experiments in triplicate
Experimental: (§1) HK-2 cells from the American Type Culture Collection (ATCC) were cultured using Dulbecco’s modified Eagle’s medium–F12 (DMEM–F12) containing 25 mM glucose, 4 mM stable L-glutamine, 100 units […] penicillin, and 100 μg […] streptomycin, supplemented with 10% heat-inactivated fetal bovine serum (FBS, Hyclone Laboratories, Logan, UT, U.S.A.). […]
(§2) For the experiments, HK-2 and Caco-2 cells were seeded on 96-well plates at a density of 5 × 10^4 cells/well for 24 h. […] Total proteins were quantified by the Bradford method, and 2 μL of the supernatant (the equivalent of 2 μg of total proteins) was added to 18 μL of ACE1 lysis buffer in each well in a black 96-well plate with a clear bottom. […] Then, 20 μL of diluted ACE1 substrate [o-aminobenzoyl peptide (Abz-based peptide) substrate, 4% of ACE1 substrate in the assay buffer] was added in each well, except the background well, and the fluorescence (excitation/emission of 330/430 nm) was measured in a kinetic mode for 10 min at 37 °C.

[3] = molecular target: T2, angiotensin-converting enzyme (ACE); assay: Cellular ACE inhibitory assay in renal HK-2 cells; type: cell-based; set-up: endogenous in cells; settings: HK-2 cells treated 24 h at 37 °C with P7 0.1–250 μM; ACE activity in cell lysates, fluorescent Abz substrate; mean ± sd of three independent experiments in triplicate
Experimental: as §1, §2

[4] = molecular target: purified human recombinant DPP-IV enzyme (Homo sapiens, UniProt P27487); settings: read-out: IC50, in vitro on the DPP-IV enzyme; cited from earlier work
Chain of purified human recombinant DPP-IV enzyme (P27487 whole entry): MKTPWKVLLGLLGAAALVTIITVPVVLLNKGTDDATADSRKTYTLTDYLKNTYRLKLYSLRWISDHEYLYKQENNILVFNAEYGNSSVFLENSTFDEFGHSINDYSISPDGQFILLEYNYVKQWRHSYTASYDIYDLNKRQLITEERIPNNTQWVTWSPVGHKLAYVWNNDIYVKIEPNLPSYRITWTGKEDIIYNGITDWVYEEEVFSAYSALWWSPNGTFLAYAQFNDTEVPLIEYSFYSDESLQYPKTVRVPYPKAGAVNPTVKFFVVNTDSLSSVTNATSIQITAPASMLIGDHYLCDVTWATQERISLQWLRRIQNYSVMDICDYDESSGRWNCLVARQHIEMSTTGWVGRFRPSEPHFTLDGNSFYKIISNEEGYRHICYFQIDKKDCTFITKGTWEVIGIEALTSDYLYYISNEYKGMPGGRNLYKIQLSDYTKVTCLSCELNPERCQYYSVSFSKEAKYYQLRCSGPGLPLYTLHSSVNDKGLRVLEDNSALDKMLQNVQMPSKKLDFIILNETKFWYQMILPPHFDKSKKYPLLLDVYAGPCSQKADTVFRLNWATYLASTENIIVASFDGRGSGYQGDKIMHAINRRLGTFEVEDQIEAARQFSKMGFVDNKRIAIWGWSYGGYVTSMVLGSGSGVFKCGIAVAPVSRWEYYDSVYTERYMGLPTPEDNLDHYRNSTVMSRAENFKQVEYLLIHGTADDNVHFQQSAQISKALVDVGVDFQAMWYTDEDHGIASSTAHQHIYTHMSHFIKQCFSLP

T2 sequence (P12821 30-1306): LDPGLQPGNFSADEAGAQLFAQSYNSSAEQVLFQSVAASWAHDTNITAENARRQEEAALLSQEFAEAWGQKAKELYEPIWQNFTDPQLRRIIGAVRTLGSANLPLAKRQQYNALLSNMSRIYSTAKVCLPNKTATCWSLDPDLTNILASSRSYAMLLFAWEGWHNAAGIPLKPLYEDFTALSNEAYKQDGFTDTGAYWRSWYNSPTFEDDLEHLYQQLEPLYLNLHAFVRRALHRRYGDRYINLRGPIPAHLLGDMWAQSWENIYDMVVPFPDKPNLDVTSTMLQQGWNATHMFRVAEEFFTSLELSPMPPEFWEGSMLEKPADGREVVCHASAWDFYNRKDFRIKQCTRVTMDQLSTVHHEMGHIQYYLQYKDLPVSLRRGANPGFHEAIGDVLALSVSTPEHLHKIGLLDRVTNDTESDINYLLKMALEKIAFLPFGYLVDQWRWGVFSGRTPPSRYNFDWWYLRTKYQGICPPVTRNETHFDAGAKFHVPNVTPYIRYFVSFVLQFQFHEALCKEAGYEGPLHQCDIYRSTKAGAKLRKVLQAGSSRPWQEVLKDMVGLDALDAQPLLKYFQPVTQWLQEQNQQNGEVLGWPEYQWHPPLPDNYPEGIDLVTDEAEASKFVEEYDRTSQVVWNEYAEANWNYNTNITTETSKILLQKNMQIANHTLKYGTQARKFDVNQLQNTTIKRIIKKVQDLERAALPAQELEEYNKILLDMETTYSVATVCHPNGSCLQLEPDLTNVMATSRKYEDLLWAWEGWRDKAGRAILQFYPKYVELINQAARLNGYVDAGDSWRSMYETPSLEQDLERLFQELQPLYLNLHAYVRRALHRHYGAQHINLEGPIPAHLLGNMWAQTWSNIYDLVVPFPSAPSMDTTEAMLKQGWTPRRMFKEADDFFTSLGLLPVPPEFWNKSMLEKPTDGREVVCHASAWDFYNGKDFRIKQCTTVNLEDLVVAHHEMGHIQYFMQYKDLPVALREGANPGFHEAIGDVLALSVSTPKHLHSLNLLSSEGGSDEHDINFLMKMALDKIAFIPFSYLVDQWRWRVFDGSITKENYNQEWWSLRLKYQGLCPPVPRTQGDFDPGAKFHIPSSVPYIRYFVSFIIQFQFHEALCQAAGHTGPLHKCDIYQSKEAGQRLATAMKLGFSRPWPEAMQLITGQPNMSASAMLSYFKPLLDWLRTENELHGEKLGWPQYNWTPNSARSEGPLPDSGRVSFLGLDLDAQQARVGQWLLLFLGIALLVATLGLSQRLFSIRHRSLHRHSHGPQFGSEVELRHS

Substance | inhibition at 100 µM ([1]; 100 μM) | inhibition at 250 µM ([1]; 250 μM) | IC50 [2] | IC50 [3] | IC50 [4]
LTFPG [LTFPG] | 4.7 ± 0.3% | 10.3 ± 0.8% |  |  | 
LTFPGSAED [P7] |  |  | 13.7 µM | 79.6 µM | 228 µM
